# Measured values reported in patent US20120277209A1, “PYRAZINE COMPOUNDS AS PHOSPHODIESTERASE 10 INHIBITORS” (Amgen Inc., priority 2009, published 2012).
# Biological target: PDE10 (UniProt Q9Y233)
# Experiment: PDE10 enzyme inhibition, IMAP TR-FRET assay (MPDE10A7 Enzyme Activity and Inhibition)
# Format: biochemical
# Details: IC50 class against PDE10; read-out: IC50
# Procedure: All compounds were divided in five classes based on their IC50 values against PDE10. The range of the IC50 in each class is as follows:
# An IMAP TR-FRET assay was used to analyze the enzyme activity (Molecular Devices Corp., Sunnyvale Calif.). 5 μL of serial diluted PDE10A (BPS Bioscience, San Diego, Calif.) or tissue homogenate was incubated with equal volumes of diluted fluorescein labeled cAMP or cGMP for 60 min in 384-well polystyrene assay plates (Corning, Corning, N.Y.) at room temperature. After incubation, the reaction was stopped by adding 60 μL of diluted binding reagents and was incubated for 3 hours to overnight at room temperature. The plates were read on an Envision (Perkin Elmer, Waltham, Mass.) for time resolved fluorescence resonance energy transfer. The data were analyzed with GraphPad Prism (La Jolla, Calif.).
# Enzyme Inhibition. To check the inhibition profile, 5 μL of serial diluted compounds were incubated with 5 μL of diluted PDE10 enzyme (BPS Bioscience, San Diego, Calif.) or tissue homogenate in a 384-well polystyrene assay plate (Corning, Corning, N.Y.) for 30 min at room temperature. After incubation, 10 μL of diluted fluorescein labeled cAMP or cGMP substrate were added and incubated for 60 min at room temperature. The reaction was stopped by adding 60 μL of diluted binding reagents and plates were read on an Envision (Perkin Elmer, Waltham, Mass.) for time resolved fluorescence resonance energy transfer. The data were analyzed with GraphPad Prism (La Jolla, Calif.).
# The tabulated IC50 data represent an average IC50 data for each compound.
row,IC50,SMILES
1,25 to 100 nM,"O=C(c1ccc(Oc2nccnc2OCCc2ccccn2)cc1)c1nc2ccccc2[nH]1 [Example 177, (1H-benzo[d]imidazol-2-yl)(4-(3-(2-(pyridin-2-yl)ethoxy)pyrazin-2-yloxy)phenyl)methanone]"
2,< 25 nM,"OC1CCN(c2nccnc2Oc2ccc(Nc3nc4ccccc4s3)cc2)CC1 [Example 67, 1-(3-(4-(benzo[d]thiazol-2-ylamino)phenoxy)pyrazin-2-yl)piperidin-4-ol]"
3,< 25 nM,"[2H]C([2H])([2H])C(=O)N1CCC(c2nccnc2Oc2ccc(C(=O)c3nc4ccccc4[nH]3)cc2)CC1 [Example 231, 1-(4-(3-(4-(1H-benzo[d]imidazole-2-carbonyl)phenoxy)pyrazin-2-yl)piperidin-1-yl)perdeuteroethanone]"
4,250 to 1000 nM,"CC(O)(C1CCN(c2nccnc2Oc2ccc(Nc3nc4ccccc4s3)cc2)CC1)C(F)(F)F (stereo not shown) [Example 73, 2-(1-(3-(4-(benzo[d]thiazol-2-ylamino)phenoxy)pyrazin-2-yl)piperidin-4-yl)-1,1,1-trifluoropropan-2-ol]"
5,< 25 nM,"COCC1CCN(c2nccnc2Oc2ccc(Nc3nc4ccccc4s3)cc2)C1 (racemic) [Example 88, N-(4-(3-(3-(methoxymethyl)-pyrrolidin-1-yl)pyrazin-2-yl-oxy)phenyl)benzo[d]thiazol-2-amine]"
6,< 25 nM,"Clc1ccc(-c2nccnc2Oc2ccc(Nc3nc4ccccc4s3)cc2)cn1 [Example 145, N-(4-(3-(6-chloropyridin-3-yl)pyrazin-2-yloxy)phenyl)benzo[d]thiazol-2-amine]"
7,< 25 nM,"c1ccc2sc(Nc3ccc(Oc4nccnc4C4CCCOC4)cc3)nc2c1 (stereo not shown) [Example 193, N-(4-(3-(tetrahydro-2H-pyran-3-yl)pyrazin-2-yloxy)phenyl)benzo[d]thiazol-2-amine]"
8,< 25 nM,"O[C@H]1CCC[C@H](c2nccnc2Oc2ccc(Nc3nc4ccccc4s3)cc2)C1 (racemic) [Example 192, (rac)-trans-3-(3-(4-(benzo[d]thiazol-2-ylamino)phenoxy)pyrazin-2-yl)cyclohexanol]"
9,< 25 nM,"COC(=O)C1(c2nccnc2Oc2ccc(Nc3nc4ccccc4s3)cc2)CCN(C(=O)OC(C)(C)C)CC1 [Example 205, 1-tert-butyl 4-methyl 4-(3-(4-(benzo[d]thiazol-2-ylamino)phenoxy)pyrazin-2-yl)piperidine-1,4-dicarboxylate]"
10,< 25 nM,"CC(F)C(=O)N1CCC(c2nccnc2Oc2ccc(Nc3nc4ccccc4s3)cc2)CC1 (stereo not shown) [Example 235, 1-(4-(3-(4-(benzo[d]thiazol-2-ylamino)phenoxy)pyrazin-2-yl)piperidin-1-yl)-2-fluoropropan-1-one]"
11,< 25 nM,"CC(=O)OCC(=O)N1CCC(c2nccnc2Oc2ccc(C(=O)c3nc4ccccc4[nH]3)cc2)CC1 [Example 244, 2-(4-(3-(4-(1H-benzo[d]imidazole-2-carbonyl)phenoxy)pyrazin-2-yl)piperidin-1-yl)-2-oxoethyl acetate]"
12,< 25 nM,"CN(c1ccc(Oc2nccnc2C2CCOCC2)cc1)c1nc2ccccc2s1 [Example 201, N-METHYL-N-(4-(3-(TETRAHYDRO-2H-PYRAN-4-YL)PYRAZIN-2-YLOXY)PHENYL)BENZO[D]THIAZOL-2-AMINE]"
13,< 25 nM,"O=C(c1ccc(Oc2nccnc2C2=CCC(F)(F)CC2)cc1)c1nc2ccccc2[nH]1 [Example 199, (1H-benzo[d]imidazol-2-yl)(4-(3-(4,4-difluorocyclohex-1-enyl)pyrazin-2-yloxy)phenyl)methanone]"
14,25 to 100 nM,"COc1ccc(-c2nccnc2Oc2ccc(C(=O)c3nc4ccccc4[nH]3)cc2)c(OC)n1 [Example 111, (1H-benzo[d]imidazol-2-yl)(4-(3-(2,6-dimethoxypyridin-3-yl)pyrazin-2-yloxy)phenyl)methanone]"
15,< 25 nM,"COC(=O)C1(c2nccnc2Oc2ccc(Nc3nc4ccccc4s3)cc2)CCOCC1 [Example 212, methyl 4-(3-(4-(benzo[d]thiazol-2-ylamino)phenoxy)pyrazin-2-yl)tetrahydro-2H-pyran-4-carboxylate]"

# Same assay, conditions: PDE10 enzyme inhibition; average IC50 data for each compound; read-out: Average IC50
row,IC50,SMILES
1,6.03 nM,Cc1nnc2n1CCN(c1nccnc1Oc1ccc(C(=O)c3nc4ccccc4[nH]3)cc1)C2
2,25.2 nM,CCCOc1nccnc1Oc1ccc(C(=O)c2nc3ccccc3[nH]2)cc1 [drawing 905]
3,1.83 nM,O=C(c1ccc(Oc2nccnc2C2(F)CCOCC2)cc1)c1nc2ccccc2[nH]1 [drawing 924]
4,2.96 nM,CC(=O)N1CCC[C@@H](c2nccnc2Oc2ccc(C(=O)c3nc4ccccc4[nH]3)cc2)C1 (stereo in doubt)
5,1.12 nM,O=C(c1ccc(Oc2nccnc2N2CCC[C@H]2CO)cc1)c1nc2ccccc2[nH]1
6,31.7 nM,O=C(c1ccc(Oc2nccnc2C2=CCOCC2)cc1)c1nc2ncccc2[nH]1 [drawing 879]
7,0.902 nM,OC1(c2nccnc2Oc2ccc(Nc3nc4ccccc4s3)cc2)CCOCC1 [drawing 902]
8,6.02 nM,CN1CCC(c2nccnc2Oc2ccc(C(=O)c3nc4ccccc4[nH]3)cc2)CC1=O (stereo not shown) [drawing 926]
9,1.43 nM,CN(C)CC(=O)N1CCC(c2nccnc2Oc2ccc(C(=O)c3nc4ccccc4[nH]3)cc2)CC1 [drawing 995]
10,63.1 nM,Fc1cc(-c2nccnc2Oc2ccc(Nc3nc4ccccc4s3)c(F)c2)ccn1 [drawing 974]
11,4.12 nM,OCc1ccc(-c2nccnc2Oc2ccc(Nc3nc4ccccc4s3)cc2)cn1 [drawing 804]
12,8.4 nM,COC(=O)C1CN(c2nccnc2Oc2ccc(Nc3nc4ccccc4s3)cc2)C1 [drawing 722]
13,14 nM,O=C(c1ccc(Oc2nccnc2OCc2ccncc2)cc1)c1nc2ccccc2[nH]1 [drawing 859]
14,23.2 nM,COc1ncc(-c2nccnc2Oc2ccc(Nc3nc4ccccc4s3)cc2)cn1 [drawing 783]
15,8.44 nM,OCCN1CCN(c2nccnc2Oc2ccc(Nc3nc4ccccc4s3)cc2)CC1 [drawing 720]
16,2.05 nM,O=C(c1ccc(Oc2nccnc2N2CC[C@@H](CO)C2)cc1)c1nc2ccccc2[nH]1
17,0.0175 nM,CC(=O)OCC(=O)N1CCC(c2nccnc2Oc2ccc(C(=O)c3nc4ccccc4[nH]3)cc2)CC1 [drawing 991]
18,7.2 nM,COc1ncccc1-c1nccnc1Oc1ccc(Nc2nc3ccc(F)cc3s2)cc1 [drawing 959]
19,4.21 nM,COC(=O)[C@H]1CCN(c2nccnc2Oc2ccc(C(=O)c3nc4ccccc4[nH]3)cc2)C1 [drawing 837]
20,33 nM,COC(=O)c1ccc(-c2nccnc2Oc2ccc(C(=O)c3nc4ccccc4[nH]3)cc2)cc1 [drawing 758]
21,22.1 nM,O=C1C=C(c2nccnc2Oc2ccc(Nc3nc4ccccc4s3)c(F)c2)CCC1 [drawing 998]
22,556 nM,O=C(c1ccc(Oc2nccnc2C(=O)O)cc1)c1nc2ccccc2[nH]1
23,2.16 nM,O=C(c1ccc(Oc2nccnc2C2(O)CCOCC2)cc1)c1nc2ccccc2[nH]1 [drawing 908]
24,7.5 nM,O=C(c1ccc(Oc2nccnc2-c2ccncc2)cc1)c1nc2ccccc2[nH]1 [drawing 755]
25,1.33 nM,O[C@H]1CCC[C@@H](c2nccnc2Oc2ccc(Nc3nc4ccccc4s3)cc2)C1 [drawing 903]
26,52.9 nM,FC(F)(c1ccc(Oc2nccnc2C2CCOCC2)cc1)c1nc2ccccc2[nH]1
27,0.206 nM,COC(=O)N1CCC(c2nccnc2Oc2ccc(Nc3nc4ccccc4s3)cc2)CC1
28,2.71 nM,CC(=O)N1CC(c2nccnc2Oc2ccc(C(=O)c3nc4ccccc4[nH]3)cc2)C1 [drawing 925]

# Same assay, conditions: PDE10 enzyme inhibition; chiral compounds separated from racemic mixtures; read-out: IC50
row,IC50,SMILES
1,< 25 nM,"O[C@@H]1CCC[C@H](c2nccnc2Oc2ccc(Nc3nc4ccccc4s3)cc2)C1 [Example 272, (1R,3S)-3-(3-(4-(benzo[d]thiazol-2-ylamino)phenoxy)pyrazin-2-yl)cyclohexanol]"
2,< 25 nM,"C[C@@H](F)C(=O)N1CCC(c2nccnc2Oc2ccc(C(=O)c3nc4ccccc4[nH]3)cc2)CC1 [Example 277, (R)-1-(4-(3-(4-(1H-benzo[d]imidazole-2-carbonyl)phenoxy)pyrazin-2-yl)piperidin-1-yl)-2-fluoropropan-1-one]"
3,< 25 nM,"O[C@@H]1CCC[C@@H](c2nccnc2Oc2ccc(Nc3nc4ccccc4s3)cc2)C1 [Example 276, (1R,3R)-3-(3-(4-(benzo[d]thiazol-2-ylamino)phenoxy)pyrazin-2-yl)cyclohexanol]"
4,< 25 nM,"N#C[C@H]1CCN(c2nccnc2Oc2ccc(C(=O)c3nc4ccccc4[nH]3)cc2)C1 [Example 262, (S)-1-(3-(4-(1H-benzo[d]imidazole-2-carbonyl)phenoxy)pyrazin-2-yl)pyrrolidine-3-carbonitrile]"
5,< 25 nM,"C[C@H](F)C(=O)N1CCC(c2nccnc2Oc2ccc(Nc3nc4ccccc4s3)cc2)CC1 [Example 280, (S)-1-(4-(3-(4-(benzo[d]thiazol-2-ylamino)phenoxy)pyrazin-2-yl)piperidin-1-yl)-2-fluoropropan-1-one]"
6,< 25 nM,"O[C@H]1CCC[C@@H](c2nccnc2Oc2ccc(Nc3nc4ccccc4s3)cc2)C1 [Example 271, (1S,3R)-3-(3-(4-(benzo[d]thiazol-2-ylamino)phenoxy)pyrazin-2-yl)cyclohexanol]"
